Assay results: the supplement of paper PMC10307832

How the values were obtained:
Assay in all cases: relative viability (nuclei count vs DMSO), 5 days (fraction); higher = more cells survive
LCLC-103H = system: LCLC-103H
Method in brief: (§1)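 Relative viability was taken as the ratio of nuclei in treated wells to nuclei in vehicle wells. Lung cancer cell lines in 1536-well plates received compounds by pin tool one day after seeding, either one drug alone or a fixed anchor-drug dose plus five library-drug doses (not always all listed) in √10 steps. Nuclei were counted on 4× images after 5 days of treatment, and values are medians of duplicate plates.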

NCI-H1944 = system: NCI-H1944
Method in brief: as §1

NCI-H2126 = system: NCI-H2126
Method in brief: as §1

SK-LU-1 = system: SK-LU-1
Method in brief: as §1

ChaGo-K-1 = system: ChaGo-K-1
Method in brief: as §1

NCI-H1395 = system: NCI-H1395
Method in brief: as §1

ABC-1 = system: ABC-1
Method in brief: as §1

LXF-289 = system: LXF-289
Method in brief: as §1

NCI-H322M = system: NCI-H322M
Method in brief: as §1

NCI-H1666 = system: NCI-H1666
Method in brief: as §1

RERF-LC-KJ = system: RERF-LC-KJ
Method in brief: as §1

NCI-H358 = system: NCI-H358
Method in brief: as §1

LU99A = system: LU99A
Method in brief: as §1

NCI-H1792 = system: NCI-H1792
Method in brief: as §1

HCC-44 = system: HCC-44
Method in brief: as §1

NCI-H520 = system: NCI-H520
Method in brief: as §1

HCC-827 = system: HCC-827
Method in brief: as §1

NCI-H3122 = system: NCI-H3122
Method in brief: as §1

NCI-H1793 = system: NCI-H1793
Method in brief: as §1

NCI-H1755 = system: NCI-H1755
Method in brief: as §1

NCI-H2347 = system: NCI-H2347
Method in brief: as §1

Cc1cn(-c2cc(NC(=O)c3ccc(C)c(Nc4nccc(-c5cccnc5)n4)c3)cc(C(F)(F)F)c2)cn1 [Nilotinib] + Nc1ncn([C@H]2C[C@H](O)[C@@H](CO)O2)c(=O)n1 [Decitabine] (partner 2 µM)
relative viability (LCLC-103H; first compound 0.001 µM): 0.77
relative viability (LCLC-103H; first compound 0.003162 µM): 0.883
relative viability (LCLC-103H; first compound 0.01 µM): 0.815
relative viability (LCLC-103H; first compound 0.03162 µM): 0.744
relative viability (LCLC-103H; first compound 0.1 µM): 0.721
relative viability (NCI-H1944; first compound 0.001 µM): 0.445
relative viability (NCI-H1944; first compound 0.003162 µM): 0.505
relative viability (NCI-H1944; first compound 0.01 µM): 0.512
relative viability (NCI-H1944; first compound 0.03162 µM): 0.591
relative viability (NCI-H1944; first compound 0.1 µM): 0.537
relative viability (NCI-H2126; first compound 0.001 µM): 0.541
relative viability (NCI-H2126; first compound 0.003162 µM): 0.675
relative viability (NCI-H2126; first compound 0.01 µM): 0.564
relative viability (NCI-H2126; first compound 0.03162 µM): 0.614
relative viability (NCI-H2126; first compound 0.1 µM): 0.568
relative viability (SK-LU-1; first compound 0.001 µM): 0.532
relative viability (SK-LU-1; first compound 0.003162 µM): 0.627
relative viability (SK-LU-1; first compound 0.01 µM): 0.699
relative viability (SK-LU-1; first compound 0.03162 µM): 0.424
relative viability (SK-LU-1; first compound 0.1 µM): 0.532
relative viability (ChaGo-K-1; first compound 0.001 µM): 0.528
relative viability (ChaGo-K-1; first compound 0.003162 µM): 0.584
relative viability (ChaGo-K-1; first compound 0.01 µM): 0.585
relative viability (ChaGo-K-1; first compound 0.03162 µM): 0.519
relative viability (ChaGo-K-1; first compound 0.1 µM): 0.577
relative viability (NCI-H1395; first compound 0.001 µM): 0.745
relative viability (NCI-H1395; first compound 0.01 µM): 0.798
relative viability (NCI-H1395; first compound 0.03162 µM): 0.707
relative viability (NCI-H1395; first compound 0.1 µM): 0.891
relative viability (ABC-1; first compound 0.001 µM): 0.987
relative viability (ABC-1; first compound 0.003162 µM): 0.946
relative viability (ABC-1; first compound 0.01 µM): 1.05
relative viability (ABC-1; first compound 0.03162 µM): 0.978
relative viability (ABC-1; first compound 0.1 µM): 0.96
relative viability (LXF-289; first compound 0.001 µM): 0.363
relative viability (LXF-289; first compound 0.003162 µM): 0.447
relative viability (LXF-289; first compound 0.01 µM): 0.391
relative viability (LXF-289; first compound 0.03162 µM): 0.551
relative viability (LXF-289; first compound 0.1 µM): 0.61
relative viability (NCI-H322M; first compound 0.001 µM): 0.724
relative viability (NCI-H322M; first compound 0.003162 µM): 0.786
relative viability (NCI-H322M; first compound 0.01 µM): 0.673
relative viability (NCI-H322M; first compound 0.03162 µM): 0.654
relative viability (NCI-H322M; first compound 0.1 µM): 0.898
relative viability (NCI-H1666; first compound 0.001 µM): 0.698
relative viability (NCI-H1666; first compound 0.01 µM): 0.697
relative viability (NCI-H1666; first compound 0.03162 µM): 0.606
relative viability (NCI-H1666; first compound 0.1 µM): 0.613
relative viability (RERF-LC-KJ; first compound 0.001 µM): 0.732
relative viability (RERF-LC-KJ; first compound 0.003162 µM): 0.796
relative viability (RERF-LC-KJ; first compound 0.01 µM): 0.771
relative viability (RERF-LC-KJ; first compound 0.03162 µM): 0.653
relative viability (RERF-LC-KJ; first compound 0.1 µM): 0.449
relative viability (NCI-H358; first compound 0.001 µM): 0.214
relative viability (NCI-H358; first compound 0.003162 µM): 0.264
relative viability (NCI-H358; first compound 0.01 µM): 0.229
relative viability (NCI-H358; first compound 0.03162 µM): 0.195
relative viability (NCI-H358; first compound 0.1 µM): 0.15
relative viability (LU99A; first compound 0.001 µM): 0.909
relative viability (LU99A; first compound 0.003162 µM): 1.11
relative viability (LU99A; first compound 0.01 µM): 0.905
relative viability (LU99A; first compound 0.03162 µM): 0.999
relative viability (LU99A; first compound 0.1 µM): 0.436
relative viability (NCI-H1792; first compound 0.001 µM): 0.463
relative viability (NCI-H1792; first compound 0.003162 µM): 0.691
relative viability (NCI-H1792; first compound 0.01 µM): 0.66
relative viability (NCI-H1792; first compound 0.03162 µM): 0.403
relative viability (NCI-H1792; first compound 0.1 µM): 0.633
relative viability (HCC-44; first compound 0.001 µM): 0.922
relative viability (HCC-44; first compound 0.003162 µM): 0.945
relative viability (HCC-44; first compound 0.01 µM): 0.969
relative viability (HCC-44; first compound 0.1 µM): 0.918
relative viability (NCI-H520; first compound 0.001 µM): 0.473
relative viability (NCI-H520; first compound 0.003162 µM): 0.653
relative viability (NCI-H520; first compound 0.01 µM): 0.613
relative viability (NCI-H520; first compound 0.03162 µM): 0.564
relative viability (NCI-H520; first compound 0.1 µM): 0.649
relative viability (HCC-827; first compound 0.001 µM): 0.303
relative viability (HCC-827; first compound 0.003162 µM): 0.41
relative viability (HCC-827; first compound 0.03162 µM): 0.296
relative viability (HCC-827; first compound 0.1 µM): 0.328
relative viability (NCI-H3122; first compound 0.001 µM): 0.504
relative viability (NCI-H3122; first compound 0.003162 µM): 0.468
relative viability (NCI-H3122; first compound 0.01 µM): 0.505
relative viability (NCI-H3122; first compound 0.03162 µM): 0.471
relative viability (NCI-H3122; first compound 0.1 µM): 0.314
relative viability (NCI-H1793; first compound 0.001 µM): 0.49
relative viability (NCI-H1793; first compound 0.003162 µM): 0.263
relative viability (NCI-H1793; first compound 0.01 µM): 0.87
relative viability (NCI-H1793; first compound 0.03162 µM): 0.708
relative viability (NCI-H1793; first compound 0.1 µM): 0.516
relative viability (NCI-H1755; first compound 0.001 µM): 0.742
relative viability (NCI-H1755; first compound 0.003162 µM): 0.81
relative viability (NCI-H1755; first compound 0.01 µM): 0.78
relative viability (NCI-H1755; first compound 0.03162 µM): 0.961
relative viability (NCI-H1755; first compound 0.1 µM): 0.846
relative viability (NCI-H2347; first compound 0.001 µM): 0.637
relative viability (NCI-H2347; first compound 0.003162 µM): 0.694
relative viability (NCI-H2347; first compound 0.01 µM): 0.718
relative viability (NCI-H2347; first compound 0.03162 µM): 0.626
relative viability (NCI-H2347; first compound 0.1 µM): 0.601
